The target in test [1] is T1, human CB2 receptors (Homo sapiens, UniProt P34972).
T1 construct: expressed in transfected cells; host or cells: CHO cells
The test can be described thus: Cannabinoid receptor [3H]CP-55,940 displacement binding assay, CB2. To be noted: for inhibition at 10 µM: 1 h, 10 µM compound, CHO cell membranes, 2.5 nM radioligand, read-out: Displacement of [3H]CP-55,940 from CB2; for displacement of [3H]CP-55,940 in the competitive radioligand screen: 10 µM, receptor (CB1 or CB2) not given. How it is done:
(§1) The affinities of the compounds for CB1 and CB2 receptors were examined using displacement assays, as previously described. Briefly, cell membranes from CHO cells expressing human CB1 or human CB2 receptors were isolated using differential centrifugation. Test compounds reconstituted in DMSO and were incubated with the isolated membrane in binding buffer (50 mM Tris-HCl, 1 mM EDTA, 3 mM MgCl2, 5 mg/mL BSA, pH 7.4) along with 2.5 nM [^3H]CP-55,940. Total binding was assessed in the presence of equal concentration of DMSO, while non-specific binding was determined in the presence of 10 μM CP-55,940, and background binding was determined in wells lacking membrane. Following incubation at 30 °C for 60 min, the binding reactions were terminated by vacuum filtration through Whatman GF/C filters. The filters were then washed twice with ice-cold buffer (50 mM Tris-HCl, 1 mg/mL BSA). Liquid scintillation cocktail was added to each well and the total tritiated counts per minute were analyzed using a TopCount scintillation counter. Background counts were subtracted from all wells and the percent displacement from total binding was calculated.
(§2) The compounds were initially screened at 10 μM concentrations. If they produced at least ±30% displacement of the radioligand, then full competition curves were constructed. Ki values were calculated using GraphPad Prism (San Diego, CA, USA) and Kd values determined using a 1 site fit. All assays were run in technical and biological replicates so that the n = 5–6.
On the technique in general: Loss of bound radioactivity is the signal in a displacement assay; it reports binding, not function.

The target of test [2] is T2, human CB1 receptors (Homo sapiens, UniProt P21554).
T2 construct: expressed in transfected cells; host or cells: CHO cells
T2 sequence (P21554 whole entry): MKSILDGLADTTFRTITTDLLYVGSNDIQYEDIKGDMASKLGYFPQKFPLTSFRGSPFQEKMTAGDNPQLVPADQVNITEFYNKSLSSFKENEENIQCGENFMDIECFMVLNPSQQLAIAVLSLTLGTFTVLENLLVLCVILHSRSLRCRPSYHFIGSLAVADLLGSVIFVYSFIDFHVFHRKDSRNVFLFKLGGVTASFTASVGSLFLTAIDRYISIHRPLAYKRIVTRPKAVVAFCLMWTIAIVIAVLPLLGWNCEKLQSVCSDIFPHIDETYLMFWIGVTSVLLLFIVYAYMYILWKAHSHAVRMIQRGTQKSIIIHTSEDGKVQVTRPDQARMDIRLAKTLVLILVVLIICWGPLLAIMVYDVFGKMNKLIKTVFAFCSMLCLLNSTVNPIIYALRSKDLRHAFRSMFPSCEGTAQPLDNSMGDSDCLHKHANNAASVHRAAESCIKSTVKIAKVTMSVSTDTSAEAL
The test can be described thus: Cannabinoid receptor [3H]CP-55,940 displacement binding assay, CB1. To be noted: 1 h; 10 µM compound; CHO cell membranes, 2.5 nM radioligand; read-out: Displacement of [3H]CP-55,940 from CB1. Here is the method: as §1, §2

T1 sequence (P34972 whole entry): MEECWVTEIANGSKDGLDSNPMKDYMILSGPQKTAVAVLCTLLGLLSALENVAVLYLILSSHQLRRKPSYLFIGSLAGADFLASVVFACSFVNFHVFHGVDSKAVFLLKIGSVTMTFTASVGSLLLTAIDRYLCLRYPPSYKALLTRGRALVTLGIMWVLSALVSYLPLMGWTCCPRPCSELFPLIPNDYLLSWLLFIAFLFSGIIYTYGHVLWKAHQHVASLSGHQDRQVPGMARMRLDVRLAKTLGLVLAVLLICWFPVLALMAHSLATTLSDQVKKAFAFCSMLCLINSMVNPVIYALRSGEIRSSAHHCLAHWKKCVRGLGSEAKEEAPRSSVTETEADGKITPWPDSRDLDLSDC

With `O=C1c2ccccc2N/C(=N/N=C/c2ccc[nH]2)[C@@H]2CCCN12` [Compound 4a], the inhibition at 10 µM is -12.5% in test [1] and -3.09% in test [2].

As for `Cn1ccnc1/C=N/N=C1/Nc2ccccc2C(=O)N2CCC[C@@H]12` [Compound 4b], the inhibition at 10 µM in test [1] is -14.5%; in test [2], -14%.

In the case of `O=C1c2ccccc2N/C(=N/N=C/c2cncs2)[C@@H]2CCCN12` [Compound 4c, (S,E)-11-[(Thiazol-5-ylmethylene)hydrazono]-pyrrolo[2,1-c][1,4] Benzodiazepine], the inhibition at 10 µM stood at 3.06% in test [1] and 0.25% in test [2].

For the molecule `Cc1ncc(/C=N/N=C2/Nc3ccccc3C(=O)N3CCC[C@@H]23)s1` [Compound 4d], the inhibition at 10 µM in test [1] is -33.6%; in test [2], -28%.

`Cc1ncsc1/C=N/N=C1/Nc2ccccc2C(=O)N2CCC[C@@H]12` [Compound 4e]: the inhibition at 10 µM came to 19.9% in test [1] and 21.9% in test [2].

Regarding `Nc1ncc(/C=N/N=C2/Nc3ccccc3C(=O)N3CCC[C@@H]23)s1` [Compound 4f], the inhibition at 10 µM in test [1] was 3.72%; in test [2], 1.75%.

For `O=C1c2ccccc2N/C(=N/N=C/c2sc(Cl)nc2Cl)[C@@H]2CCCN12` [Compound 4g], the inhibition at 10 µM in test [1] was 29.3%; in test [2], 24.2%.

As for `O=C1c2ccccc2N/C(=N/N=C/c2cc3ccccc3s2)[C@@H]2CCCN12` [Compound 4h, (S,E)-11-[2-(Benzo[b]thiophenylmethylene)hydrazono]-pyrrolo[2,1-c][1,4] Benzodiazepine], in test [1], the “displacement of [3H]CP-55,940 in the competitive radioligand screen” value is given as “more than 60%” and the inhibition at 10 µM amounted to 61%. The inhibition at 10 µM in test [2] was found to be 36.9%.

With `O=C1c2cc(Br)ccc2N/C(=N/N=C/c2cc3ccccc3s2)[C@@H]2CCCN12` [Compound 4i, (S,E)-11-[(Benzo[b]thiophen-2-ylmethylene)hydrazono]-7-bromo-pyrrolo[2,1-c][1,4] Benzodiazepine], the inhibition at 10 µM in test [1] was 36.4%; in test [2] it was 49.8%.

Consider `O=C1c2cc(Br)ccc2N/C(=N/N=C/c2csc3ccccc23)[C@@H]2CCCN12` [Compound 4j], for which the inhibition at 10 µM in test [1] came to 65.2%; in test [2] it was 66.8%.

As for `Cc1c(/C=N/N=C2/Nc3ccccc3C(=O)N3CCC[C@@H]23)sc2ccccc12` [Compound 4l], the inhibition at 10 µM in test [1] amounted to 51.7%; in test [2] it was 77.2%.

For `O=C1c2ccccc2N/C(=N/N=C/c2sc3ccccc3c2Cl)[C@@H]2CCCN12` [Compound 4m], the inhibition at 10 µM turned out to be 50% in test [1] and 5.22% in test [2].

As for `O=C1c2ccccc2N/C(=N/N=C/c2nc3ccccc3s2)[C@@H]2CCCN12` [Compound 4n, (S,E)-11-[(Benzo[d]thiazol-2-ylmethylene)hydrazono]-pyrrolo[2,1-c][1,4] Benzodiazepine], the inhibition at 10 µM turned out to be 43.3% in test [1] and 44.1% in test [2].

In the case of `Cn1cc(/C=N/N=C2/Nc3ccccc3C(=O)N3CCC[C@@H]23)c2ccccc21` [Compound 4o], the figures for the inhibition at 10 µM in test [1] and in test [2] were 1.01% and 5.09%, respectively.

As a reminder, the Ki is the dissociation constant of the complex between target and ligand, obtained from inhibition or displacement. Take `O=C1c2ccccc2N/C(=N/N=C/C23CC4CC(CC(C4)C2)C3)[C@@H]2CCCN12` [Compound 4q]: in test [1], the “displacement of [3H]CP-55,940 in the competitive radioligand screen” value is “more than 60%” and the inhibition at 10 µM was 95.6%. The same molecule gave a Ki in test [1] (CB2, full competition curves vs [3H]CP-55,940) of 137 nM. Moreover, the inhibition at 10 µM in test [2] was 55.3%.

The values are drawn from publication PMC8778670, “Identification of an Orally Bioavailable, Brain-Penetrant Compound with Selectivity for the Cannabinoid Type 2 Receptor” (Molecules, 2022).
